Results: the NIST ThermoML archive (doi:10.1016/j.fluid.2007.06.019)
Several values for one entry are separate records, joined by “and”; a condition that tells them apart may be missing. Equal values may be shown once. ± gives the expanded uncertainty stated by the source.

Details: Liquid, Alternating current cell with electrodes

CCCCCCCC[n+]1ccn(C)c1.F[B-](F)(F)F [1-methyl-3-octylimidazolium tetrafluoroborate]
electrical conductivity (273.23 K, 101.33 kPa): 0.00961 ± 0.00058 S/m | electrical conductivity (273.37 K, 101.33 kPa): 0.00973 S/m and 0.00997 S/m | electrical conductivity (278.15 K, 101.33 kPa): 0.0144 S/m and 0.0148 S/m | electrical conductivity (283.15 K, 101.33 kPa): 0.0211 S/m and 0.0218 S/m and 0.0212 S/m | electrical conductivity (288.15 K, 101.33 kPa): 0.0303 S/m and 0.0305 S/m | electrical conductivity (288.16 K, 101.33 kPa): 0.0312 ± 0.0019 S/m | electrical conductivity (293.15 K, 101.33 kPa): 0.0435 S/m and 0.0423 S/m | electrical conductivity (293.16 K, 101.33 kPa): 0.0427 ± 0.0026 S/m | electrical conductivity (298.15 K, 100 kPa): 0.0587 ± 0.0036 S/m | electrical conductivity (298.15 K, 101.33 kPa): 0.0584 S/m [middle of 5 runs] | electrical conductivity (298.15 K, 24500 kPa): 0.0441 ± 0.0027 S/m | electrical conductivity (298.15 K, 49500 kPa): 0.0333 ± 0.002 S/m | electrical conductivity (298.15 K, 73500 kPa): 0.0257 ± 0.0016 S/m | electrical conductivity (298.15 K, 98400 kPa): 0.0197 ± 0.0012 S/m | electrical conductivity (298.15 K, 122900 kPa): 0.0152 ± 0.00093 S/m | electrical conductivity (298.15 K, 147100 kPa): 0.012 ± 0.00073 S/m | electrical conductivity (298.15 K, 171600 kPa): 0.00941 ± 0.00058 S/m | electrical conductivity (298.15 K, 196100 kPa): 0.00742 ± 0.00046 S/m | electrical conductivity (298.16 K, 101.33 kPa): 0.058 ± 0.0035 S/m | electrical conductivity (303.15 K, 101.33 kPa): 0.076 S/m and 0.0794 S/m and 0.0775 S/m | electrical conductivity (308.15 K, 101.33 kPa): 0.0992 S/m and 0.104 S/m and 0.102 S/m | electrical conductivity (313.15 K, 101.33 kPa): 0.127 S/m and 0.131 S/m and 0.132 S/m | electrical conductivity (318.15 K, 101.33 kPa): 0.16 S/m and 0.165 S/m and 0.167 S/m | electrical conductivity (323.11 K, 101.33 kPa): 0.198 S/m and 0.205 S/m | electrical conductivity (323.13 K, 101.33 kPa): 0.2 ± 0.012 S/m | electrical conductivity (323.15 K, 100 kPa): 0.203 ± 0.013 S/m | electrical conductivity (323.15 K, 24500 kPa): 0.162 ± 0.0099 S/m | electrical conductivity (323.15 K, 49300 kPa): 0.13 ± 0.0079 S/m | electrical conductivity (323.15 K, 73500 kPa): 0.106 ± 0.0064 S/m | electrical conductivity (323.15 K, 98100 kPa): 0.0853 ± 0.0052 S/m | electrical conductivity (323.15 K, 122600 kPa): 0.0695 ± 0.0042 S/m | electrical conductivity (323.15 K, 147600 kPa): 0.0567 ± 0.0034 S/m | electrical conductivity (323.15 K, 171600 kPa): 0.0468 ± 0.0028 S/m | electrical conductivity (323.15 K, 196100 kPa): 0.0386 ± 0.0024 S/m | electrical conductivity (328.15 K, 101.33 kPa): 0.244 S/m and 0.252 S/m | electrical conductivity (328.19 K, 101.33 kPa): 0.246 ± 0.015 S/m | electrical conductivity (333.11 K, 101.33 kPa): 0.304 ± 0.018 S/m | electrical conductivity (333.12 K, 101.33 kPa): 0.294 ± 0.018 S/m | electrical conductivity (333.16 K, 101.33 kPa): 0.298 ± 0.018 S/m | electrical conductivity (338.12 K, 101.33 kPa): 0.355 ± 0.021 S/m | electrical conductivity (338.2 K, 101.33 kPa): 0.353 S/m and 0.364 S/m | electrical conductivity (343.16 K, 101.33 kPa): 0.42 ± 0.025 S/m | electrical conductivity (343.2 K, 101.33 kPa): 0.416 S/m and 0.43 S/m | electrical conductivity (348.15 K, 100 kPa): 0.486 ± 0.029 S/m | electrical conductivity (348.15 K, 24500 kPa): 0.406 ± 0.025 S/m | electrical conductivity (348.15 K, 49000 kPa): 0.339 ± 0.021 S/m | electrical conductivity (348.15 K, 73500 kPa): 0.287 ± 0.017 S/m | electrical conductivity (348.15 K, 98400 kPa): 0.242 ± 0.015 S/m | electrical conductivity (348.15 K, 122600 kPa): 0.206 ± 0.012 S/m | electrical conductivity (348.15 K, 147100 kPa): 0.175 ± 0.011 S/m | electrical conductivity (348.15 K, 171600 kPa): 0.149 ± 0.009 S/m | electrical conductivity (348.15 K, 196100 kPa): 0.128 ± 0.0077 S/m | electrical conductivity (348.16 K, 101.33 kPa): 0.485 ± 0.029 S/m | electrical conductivity (348.17 K, 101.33 kPa): 0.502 ± 0.03 S/m | electrical conductivity (348.24 K, 101.33 kPa): 0.494 ± 0.03 S/m | electrical conductivity (353.15 K, 101.33 kPa): 0.561 S/m and 0.581 S/m | electrical conductivity (353.21 K, 101.33 kPa): 0.572 ± 0.034 S/m

CCCCCCCC[n+]1ccn(C)c1.F[P-](F)(F)(F)(F)F [1-octyl-3-methylimidazolium hexafluorophosphate]
electrical conductivity (273.2 K, 101.33 kPa): 0.00325 ± 0.0002 S/m | electrical conductivity (273.22 K, 101.33 kPa): 0.00331 ± 0.0002 S/m | electrical conductivity (278.15 K, 101.33 kPa): 0.0053 S/m and 0.0052 S/m | electrical conductivity (283.15 K, 101.33 kPa): 0.00823 S/m and 0.00822 S/m and 0.00807 S/m | electrical conductivity (288.15 K, 101.33 kPa): 0.0121 ± 0.00073 S/m | electrical conductivity (288.16 K, 101.33 kPa): 0.0124 S/m | electrical conductivity (293.15 K, 101.33 kPa): 0.0181 S/m and 0.0182 S/m and 0.0177 S/m | electrical conductivity (298.15 K, 100 kPa): 0.0263 ± 0.0016 S/m | electrical conductivity (298.15 K, 101.33 kPa): 0.0257 S/m [middle of 4 runs] | electrical conductivity (298.15 K, 19600 kPa): 0.0202 ± 0.0012 S/m | electrical conductivity (298.15 K, 39200 kPa): 0.0154 ± 0.00095 S/m | electrical conductivity (298.15 K, 49500 kPa): 0.0134 ± 0.00083 S/m | electrical conductivity (298.15 K, 59100 kPa): 0.0117 ± 0.00072 S/m | electrical conductivity (298.15 K, 78500 kPa): 0.00918 ± 0.00057 S/m | electrical conductivity (298.15 K, 98100 kPa): 0.00712 ± 0.00044 S/m | electrical conductivity (303.15 K, 101.33 kPa): 0.036 S/m and 0.0353 S/m and 0.0358 S/m | electrical conductivity (308.15 K, 101.33 kPa): 0.0479 S/m and 0.048 S/m | electrical conductivity (308.16 K, 101.33 kPa): 0.0493 S/m and 0.0489 S/m | electrical conductivity (313.15 K, 101.33 kPa): 0.0655 S/m and 0.0653 S/m | electrical conductivity (313.16 K, 101.33 kPa): 0.0659 S/m and 0.0654 S/m | electrical conductivity (318.15 K, 101.33 kPa): 0.0863 S/m [middle of 4 runs] | electrical conductivity (323.11 K, 101.33 kPa): 0.108 ± 0.0065 S/m | electrical conductivity (323.13 K, 101.33 kPa): 0.11 ± 0.0066 S/m | electrical conductivity (323.15 K, 100 kPa): 0.107 ± 0.0069 S/m | electrical conductivity (323.15 K, 101.33 kPa): 0.111 S/m | electrical conductivity (323.15 K, 24200 kPa): 0.0814 ± 0.005 S/m | electrical conductivity (323.15 K, 49000 kPa): 0.0625 ± 0.0038 S/m | electrical conductivity (323.15 K, 73500 kPa): 0.0483 ± 0.0029 S/m | electrical conductivity (323.15 K, 98100 kPa): 0.0375 ± 0.0023 S/m | electrical conductivity (323.15 K, 122600 kPa): 0.0292 ± 0.0018 S/m | electrical conductivity (323.15 K, 147100 kPa): 0.0229 ± 0.0014 S/m | electrical conductivity (323.15 K, 171300 kPa): 0.0181 ± 0.0011 S/m | electrical conductivity (323.15 K, 196100 kPa): 0.0143 ± 0.0009 S/m | electrical conductivity (328.11 K, 101.33 kPa): 0.142 ± 0.0085 S/m | electrical conductivity (328.12 K, 101.33 kPa): 0.141 ± 0.0085 S/m | electrical conductivity (328.13 K, 101.33 kPa): 0.136 S/m and 0.137 S/m | electrical conductivity (333.11 K, 101.33 kPa): 0.17 S/m | electrical conductivity (333.19 K, 101.33 kPa): 0.173 ± 0.01 S/m | electrical conductivity (338.18 K, 101.33 kPa): 0.209 S/m and 0.21 S/m | electrical conductivity (343.16 K, 101.33 kPa): 0.254 ± 0.015 S/m | electrical conductivity (343.17 K, 101.33 kPa): 0.253 ± 0.015 S/m | electrical conductivity (348.15 K, 100 kPa): 0.29 ± 0.018 S/m | electrical conductivity (348.15 K, 24500 kPa): 0.233 ± 0.014 S/m | electrical conductivity (348.15 K, 49300 kPa): 0.188 ± 0.011 S/m | electrical conductivity (348.15 K, 73500 kPa): 0.152 ± 0.0092 S/m | electrical conductivity (348.15 K, 98100 kPa): 0.124 ± 0.0075 S/m | electrical conductivity (348.15 K, 122600 kPa): 0.101 ± 0.0061 S/m | electrical conductivity (348.15 K, 147100 kPa): 0.083 ± 0.005 S/m | electrical conductivity (348.15 K, 171600 kPa): 0.0681 ± 0.0041 S/m | electrical conductivity (348.15 K, 195800 kPa): 0.0562 ± 0.0034 S/m | electrical conductivity (348.17 K, 101.33 kPa): 0.304 ± 0.018 S/m | electrical conductivity (348.18 K, 101.33 kPa): 0.303 ± 0.018 S/m | electrical conductivity (353.17 K, 101.33 kPa): 0.358 S/m and 0.36 S/m
